From US20040259926A1, “3-Aryloxy and 3-heteroaryloxy substituted benzo[b]thiophenes as therapeutic agents” (priority 2003, published 2004)

Biological target: T1, PI3Kγ (recombinant p101/p110γ protein) (Homo sapiens, UniProt P48736)
T1 construct: HA; made in house; host or cells: Spodoptera frugiperda (Sf9) cells, baculovirus co-infection
Test: PI3Kγ In Vitro Kinase Assay
Format: biochemical
Conditions: purified recombinant p101/p110γ with G protein β1/γ2 subunits; 20 μM ATP, [γ-32P-ATP]; 25 μM PIP2 lipid micelles; 20 minutes at room temperature
How it was run: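 Baculovirus/Sf9-expressed p101/p110γ (~2.7 nM) with Gβ1/γ2 (~57.7 nM) in HEPES/NaCl/EGTA/DTT buffer; 20 μM ATP plus [γ-32P]ATP, micelles of 25 μM PIP2, 300 μM PE, 10 mM MgCl2. Reactions ran 20 minutes at room temperature; radiolabelled PIP3 captured on glass-fibre filters and counted for IC50.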

T1 sequence (P48736 whole entry, species assumed): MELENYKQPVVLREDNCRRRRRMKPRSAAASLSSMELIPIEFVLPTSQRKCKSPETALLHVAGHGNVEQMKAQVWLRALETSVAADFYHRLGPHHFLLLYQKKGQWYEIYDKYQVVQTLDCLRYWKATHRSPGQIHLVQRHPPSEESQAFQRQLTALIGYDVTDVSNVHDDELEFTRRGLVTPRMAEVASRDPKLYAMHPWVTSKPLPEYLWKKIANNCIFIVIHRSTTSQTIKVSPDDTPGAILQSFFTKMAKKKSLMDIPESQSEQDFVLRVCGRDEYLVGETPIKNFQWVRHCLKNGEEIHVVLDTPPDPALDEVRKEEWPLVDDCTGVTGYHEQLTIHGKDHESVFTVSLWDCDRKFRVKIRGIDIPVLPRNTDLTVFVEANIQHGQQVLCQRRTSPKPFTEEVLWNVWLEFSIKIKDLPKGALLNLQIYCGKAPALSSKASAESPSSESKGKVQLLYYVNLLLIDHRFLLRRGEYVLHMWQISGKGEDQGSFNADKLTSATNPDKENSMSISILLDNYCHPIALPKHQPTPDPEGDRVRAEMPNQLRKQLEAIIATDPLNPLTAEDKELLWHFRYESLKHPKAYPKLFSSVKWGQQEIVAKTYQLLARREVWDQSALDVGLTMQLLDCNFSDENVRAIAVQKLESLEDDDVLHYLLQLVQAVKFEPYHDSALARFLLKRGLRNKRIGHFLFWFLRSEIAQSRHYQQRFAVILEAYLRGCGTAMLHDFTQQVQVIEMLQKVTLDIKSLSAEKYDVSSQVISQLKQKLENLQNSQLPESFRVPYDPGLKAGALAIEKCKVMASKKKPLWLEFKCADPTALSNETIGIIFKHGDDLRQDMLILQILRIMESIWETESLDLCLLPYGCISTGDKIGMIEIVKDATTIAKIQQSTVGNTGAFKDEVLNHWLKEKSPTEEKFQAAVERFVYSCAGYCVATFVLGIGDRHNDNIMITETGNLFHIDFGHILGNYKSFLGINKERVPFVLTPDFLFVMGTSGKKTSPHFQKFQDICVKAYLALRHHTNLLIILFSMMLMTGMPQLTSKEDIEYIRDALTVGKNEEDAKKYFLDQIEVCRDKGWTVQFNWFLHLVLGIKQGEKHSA
T1 sequence (Q8WYR1 whole entry partner, species assumed): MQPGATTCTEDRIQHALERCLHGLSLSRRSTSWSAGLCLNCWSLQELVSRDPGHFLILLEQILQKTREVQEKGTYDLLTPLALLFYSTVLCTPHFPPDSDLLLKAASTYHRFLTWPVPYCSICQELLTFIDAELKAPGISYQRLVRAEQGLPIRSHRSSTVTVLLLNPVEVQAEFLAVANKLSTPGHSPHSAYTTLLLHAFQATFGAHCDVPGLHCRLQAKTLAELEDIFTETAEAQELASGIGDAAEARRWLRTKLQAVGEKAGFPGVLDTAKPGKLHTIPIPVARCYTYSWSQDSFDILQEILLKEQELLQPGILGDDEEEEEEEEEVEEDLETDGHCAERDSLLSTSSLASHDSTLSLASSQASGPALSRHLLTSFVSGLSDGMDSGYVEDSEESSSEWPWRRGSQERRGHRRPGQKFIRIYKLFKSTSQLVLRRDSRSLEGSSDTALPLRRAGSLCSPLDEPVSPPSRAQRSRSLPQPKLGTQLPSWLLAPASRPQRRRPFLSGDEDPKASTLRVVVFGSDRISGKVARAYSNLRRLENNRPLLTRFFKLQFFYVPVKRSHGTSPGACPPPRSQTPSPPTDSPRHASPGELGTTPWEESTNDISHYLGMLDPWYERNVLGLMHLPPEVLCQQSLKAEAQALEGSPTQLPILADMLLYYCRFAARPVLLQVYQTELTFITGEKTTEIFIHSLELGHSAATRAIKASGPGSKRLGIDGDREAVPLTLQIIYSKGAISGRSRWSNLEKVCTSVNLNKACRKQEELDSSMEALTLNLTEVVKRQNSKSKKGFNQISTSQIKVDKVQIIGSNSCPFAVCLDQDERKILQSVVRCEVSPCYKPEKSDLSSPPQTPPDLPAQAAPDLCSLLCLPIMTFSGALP

SMILES | IC50 [nM]
COc1cc(COc2c(C(=O)Nc3nnn[nH]3)sc3cc(OC)c(OC)cc23)cc(OC)c1 [Example C.6, 3-(3,5-Dimethoxy-benzyloxy)-5,6-dimethoxy-benzo[b]thiophene-2-carboxylic acid (1H-tetrazol-5-yl)-amide] | 1520
COc1cc2sc(C(=O)Nc3nnn[nH]3)c(OCc3ccc(C(C)(C)C)cc3)c2cc1OC [Example C.7, 3-(4-tert-Butyl-benzyloxy)-5,6-dimethoxy-benzo[b]thiophene-2-carboxylic acid (1H-tetrazol-5-yl)-amide] | 986
COc1cc2sc(C(=O)Nc3nnn[nH]3)c(OCc3c(F)ccc(F)c3F)c2cc1OC [Example C.8, 5,6-Dimethoxy-3-(2,3,6-trifluoro-benzyloxy)-benzo[b]thiophene-2-carboxylic acid (1H-tetrazol-5-yl)-amide] | 564
COc1cc2sc(C(=O)Nc3nnn[nH]3)c(O[C@H](C)Cc3ccccc3)c2cc1OC [Example C.10, 5,6-Dimethoxy-3-((R)-1-methyl-2-phenyl-ethoxy)-benzo[b]thiophene-2-carboxylic acid (1H-tetrazol-5-yl)-amide] | 1800
COc1cc2sc(C(=O)Nc3nnn[nH]3)c(OCc3cccnc3)c2cc1OC [Example C.11, 5,6-Dimethoxy-3-(pyridin-3-ylmethoxy)-benzo[b]thiophene-2-carboxylic acid (1H-tetrazol-5-yl)-amide] | 1480
COc1cc2sc(C(=O)Nc3nnn[nH]3)c(OCc3cccc(Oc4ccccc4)c3)c2cc1OC [Example C.12, 5,6-Dimethoxy-3-(3-phenoxy-benzyloxy)-benzo[b]thiophene-2-carboxylic acid (1H-tetrazol-5-yl)-amide] | 1160
COc1cc2sc(C(=O)Nc3nnn[nH]3)c(OCC(c3ccccc3)c3ccccc3)c2cc1OC [Example C.13, 3-(2,2-Diphenyl-ethoxy)-5,6-dimethoxy-benzo[b]thiophene-2-carboxylic acid (1H-tetrazol-5-yl)-amide] | 970
COc1cc2sc(C(=O)Nc3nnn[nH]3)c(OCc3ccccn3)c2cc1OC [Example C.14, 5,6-Dimethoxy-3-(pyridin-2-ylmethoxy)-benzo[b]thiophene-2-carboxylic acid (1H-tetrazol-5-yl)-amide] | 885
COc1cc2sc(C(=O)Nc3nnn[nH]3)c(OCCc3cccc4ncccc34)c2cc1OC [Example C.15, 5,6-Dimethoxy-3-(2-quinolin-5-yl-ethoxy)-benzo[b]thiophene-2-carboxylic acid (1H-tetrazol-5-yl)-amide] | 757
COc1ccc(CCOc2c(C(=O)Nc3nnn[nH]3)sc3cc(OC)c(OC)cc23)cc1OC [Example C.16, 3-[2-(3,4-Dimethoxy-phenyl)-ethoxy]-5,6-dimethoxy-benzo[b]thiophene-2-carboxylic acid (1H-tetrazol-5-yl)-amide] | 740
COc1cc2sc(C(=O)Nc3nnn[nH]3)c(OCCc3cccc4ccccc34)c2cc1OC [Example C.17, 5,6-Dimethoxy-3-(2-naphthalen-1-yl-ethoxy)-benzo[b]thiophene-2-carboxylic acid (1H-tetrazol-5-yl)-amide] | 715
COc1cc2sc(C(=O)Nc3nnn[nH]3)c(OCc3ccncc3)c2cc1OC [Example C.18, 5,6-Dimethoxy-3-(pyridin-4-ylmethoxy)-benzo[b]thiophene-2-carboxylic acid (1H-tetrazol-5-yl)-amide] | 450
COc1cc2sc(C(=O)Nc3nnn[nH]3)c(OCc3cccc(N(C)C)c3)c2cc1OC [Example C.19, 3-(3-Dimethylamino-benzyloxy)-5,6-dimethoxy-benzo[b]thiophene-2-carboxylic acid (1H-tetrazol-5-yl)-amide] | 450
COc1cc2sc(C(=O)Nc3nnn[nH]3)c(OCc3ccccc3OCC3CCCCC3)c2cc1OC [Example C.20, 3-(2-Cyclohexylmethoxy-benzyloxy)-5,6-dimethoxy-benzo[b]thiophene-2-carboxylic acid (1H-tetrazol-5-yl)-amide] | 410
COc1cc2sc(C(=O)Nc3nnn[nH]3)c(OCCc3cccc4c3CCCC4)c2cc1OC [Example C.21, 5,6-Dimethoxy-3-[2-(5,6,7,8-tetrahydro-naphthalen-1-yl)-ethoxy]-benzo[b]thiophene-2-carboxylic acid (1H-tetrazol-5-yl)-amide] | 300
COc1cc2sc(C(=O)Nc3nnn[nH]3)c(OCc3cccc4ccccc34)c2cc1OC [Example C.22, 5,6-Dimethoxy-3-(naphthalen-1-ylmethoxy)-benzo[b]thiophene-2-carboxylic acid (1H-tetrazol-5-yl)-amide] | 290

The remaining lines, values ahead:

IC50 [nM] | SMILES
255 | COc1cc2sc(C(=O)Nc3nnn[nH]3)c(OC[C@@H](C)c3ccccc3)c2cc1OC [Example C.23, 5,6-Dimethoxy-3-((S)-2-phenyl-propoxy)-benzo[b]thiophene-2-carboxylic acid (1H-tetrazol-5-yl)-amide]
255 | COc1cc2sc(C(=O)Nc3nnn[nH]3)c(OCc3cccc4c3CCCC4)c2cc1OC [Example C.24, 5,6-Dimethoxy-3-(5,6,7,8-tetrahydro-naphthalen-1-ylmethoxy)-benzo[b]thiophene-2-carboxylic acid (1H-tetrazol-5-yl)-amide]
230 | COc1cc2sc(C(=O)Nc3nnn[nH]3)c(OCc3cccc(OC4CCCC4)c3)c2cc1OC [Example C.25, 3-(3-Cyclopentyloxy-benzyloxy)-5,6-dimethoxy-benzo[b]thiophene-2-carboxylic acid (1H-tetrazol-5-yl)-amide]
215 | COc1cc2sc(C(=O)Nc3nnn[nH]3)c(OCc3cccc(OCC4CCCCC4)c3)c2cc1OC [Example C.26, 3-(3-Cyclohexylmethoxy-benzyloxy)-5,6-dimethoxy-benzo[b]thiophene-2-carboxylic acid (1H-tetrazol-5-yl)-amide]
185 | COc1cc2sc(C(=O)Nc3nnn[nH]3)c(OCCc3ccc(N(C)C)cc3)c2cc1OC [Example C.27, 3-[2-(4-Dimethylamino-phenyl)-ethoxy]-5,6-dimethoxy-benzo[b]thiophene-2-carboxylic acid (1H-tetrazol-5-yl)-amide]
185 | COc1cc2sc(C(=O)Nc3nnn[nH]3)c(OCc3ccc4c(c3)CCCC4)c2cc1OC [Example C.28, 5,6-Dimethoxy-3-(5,6,7,8-tetrahydro-naphthalen-2-ylmethoxy)-benzo[b]thiophene-2-carboxylic acid (1H-tetrazol-5-yl)-amide]
145 | COc1cc2sc(C(=O)Nc3nnn[nH]3)c(O[C@@H](C)Cc3ccccc3)c2cc1OC [Example C.29, 5,6-Dimethoxy-3-((S)-1-methyl-2-phenyl-ethoxy)-benzo[b]thiophene-2-carboxylic acid (1H-tetrazol-5-yl)-amide]
134 | COc1cc2sc(C(=O)Nc3nnn[nH]3)c(OCc3ccc(C4CCCCC4)cc3)c2cc1OC [Example C.30, 3-(4-Cyclohexyl-benzyloxy)-5,6-dimethoxy-benzo[b]thiophene-2-carboxylic acid (1H-tetrazol-5-yl)-amide]
123 | COc1cc2sc(C(=O)Nc3nnn[nH]3)c(OCc3cc(C(C)(C)C)cc(C(C)(C)C)c3)c2cc1OC [Example C.31, 3-(3,5-Di-tert-butyl-benzyloxy)-5,6-dimethoxy-benzo[b]thiophene-2-carboxylic acid (1H-tetrazol-5-yl)-amide]
117 | COc1cc2sc(C(=O)Nc3nnn[nH]3)c(OCCc3cc(C)cc(C)c3)c2cc1OC [Example C.32, 3-[2-(3,5-Dimethyl-phenyl)-ethoxy]-5,6-dimethoxy-benzo[b]thiophene-2-carboxylic acid (1H-tetrazol-5-yl)-amide]
115 | COc1cc2sc(C(=O)Nc3nnn[nH]3)c(OCCCc3ccccc3)c2cc1OC [Example C.33, 5,6-Dimethoxy-3-(3-phenyl-propoxy)-benzo[b]thiophene-2-carboxylic acid (1H-tetrazol-5-yl)-amide]
84 | COc1cc2sc(C(=O)Nc3nnn[nH]3)c(OCC(C)(C)c3ccccc3)c2cc1OC [Example C.34, 5,6-Dimethoxy-3-(2-methyl-2-phenyl-propoxy)-benzo[b]thiophene-2-carboxylic acid (1H-tetrazol-5-yl)-amide]
42 | COc1cc2sc(C(=O)Nc3nnn[nH]3)c(OC[C@H](C)c3ccccc3)c2cc1OC [Example C.35, 5,6-Dimethoxy-3-((R)-2-phenyl-propoxy)-benzo[b]thiophene-2-carboxylic acid (1H-tetrazol-5-yl)-amide]
41 | COc1cc2sc(C(=O)Nc3nn[nH]n3)c(Oc3ccccc3)c2cc1C [Example D.1, 6-Methoxy-5-methyl-3-phenoxy-benzo[b]thiophene-2-carboxylic acid (2H-tetrazol-5-yl)-amide]
150 | COc1cc2sc(C(=O)Nc3nn[nH]n3)c(Oc3cccc(C=O)c3)c2cc1C [Example D.2, 3-(3-Formyl-phenoxy)-6-methoxy-5-methyl-benzo[b]thiophene-2-carboxylic acid (2H-tetrazol-5-yl)-amide]
275 | COc1cc2sc(C(=O)Nc3nn[nH]n3)c(Oc3cccc(C#N)c3)c2cc1C [Example D.3, 3-(3-Cyano-phenoxy)-6-methoxy-5-methyl-benzo[b]thiophene-2-carboxylic acid (2H-tetrazol-5-yl)-amide]
235 | CCOc1ccc(Oc2c(C(=O)Nc3nn[nH]n3)sc3cc(OC)c(C)cc23)cc1 [Example D.5, 3-(4-Ethoxy-phenoxy)-6-methoxy-5-methyl-benzo[b]thiophene-2-carboxylic acid (2H-tetrazol-5-yl)-amide]
890 | COc1cc2sc(C(=O)Nc3nn[nH]n3)c(Oc3ccc(C(C)(C)C)cc3)c2cc1C [Example D.6, 3-(4-tert-Butyl-phenoxy)-6-methoxy-5-methyl-benzo[b]thiophene-2-carboxylic acid (2H-tetrazol-5-yl)-amide]
